Reference: the NIST ThermoML archive (doi:10.1021/je900648p)
Numbers after ± are expanded uncertainties.

Experiments:
[1] = 101.33 kPa, Liquid, Hot wire method
[2] = molar heat capacity at constant pressure; conditions: 101.33 kPa, Liquid, Small sample (50 mg) DSC

CCCC[N+]1(C)CCCC1.O=S(=O)([N-]S(=O)(=O)C(F)(F)F)C(F)(F)F
[1]
Conditions	thermal conductivity [W/m/K]
293 K	0.118 ± 0.01
303 K	0.118 ± 0.01
313 K	0.118 ± 0.01
323 K	0.117 ± 0.01
333 K	0.117 ± 0.01

CCCCn1cc[n+](C)c1.F[B-](F)(F)F [1-butyl-3-methylimidazolium tetrafluoroborate]
[2]
Conditions	molar heat capacity at constant pressure [J/K/mol]
308.16 K	367.26 ± 7.3
313.16 K	367.64 ± 7.3
318.16 K	370.39 ± 7.4
323.16 K	371.89 ± 7.4
328.22 K	373.73 ± 7.5
333.22 K	375.92 ± 7.5
338.19 K	377.15 ± 7.5
343.18 K	380.16 ± 7.6
348.25 K	382.69 ± 7.7
353.18 K	384.8 ± 7.7
358.25 K	386.99 ± 7.7
363.18 K	389.18 ± 7.8
368.17 K	390 ± 7.8
373.21 K	390.04 ± 7.8
378.2 K	392.18 ± 7.8
383.17 K	393.64 ± 7.9
388.2 K	395.28 ± 7.9
393.17 K	396.49 ± 7.9
398.2 K	397.93 ± 8
403.2 K	400.74 ± 8
408.16 K	403.88 ± 8.1
413.19 K	403.49 ± 8.1
418.19 K	404.98 ± 8.1
423.22 K	406.62 ± 8.1

CCCCCCn1cc[n+](C)c1.F[B-](F)(F)F [1-hexyl-3-methylimidazolium tetrafluoroborate]
[1]
Conditions	thermal conductivity [W/m/K]
293 K	0.158 ± 0.01
303 K	0.157 ± 0.01
313 K	0.156 ± 0.01
323 K	0.155 ± 0.01
333 K	0.153 ± 0.01
343 K	0.152 ± 0.01
353 K	0.151 ± 0.01

CCCCn1cc[n+](C)c1.F[P-](F)(F)(F)(F)F [1-butyl-3-methylimidazolium hexafluorophosphate]
Conditions	molar heat capacity at constant pressure [J/K/mol]	thermal conductivity [W/m/K]
[1], 293 K	–	0.145 ± 0.01
[1], 303 K	–	0.145 ± 0.01
[1], 313 K	–	0.145 ± 0.01
[1], 323 K	–	0.144 ± 0.01
[1], 333 K	–	0.143 ± 0.01
[1], 343 K	–	0.143 ± 0.01
[1], 353 K	–	0.143 ± 0.01
[2], 308.16 K	410.64 ± 8.2	–
[2], 313.16 K	413.48 ± 8.3	–
[2], 318.16 K	417.74 ± 8.3	–
[2], 323.16 K	422.01 ± 8.4	–
[2], 328.22 K	423.43 ± 8.5	–
[2], 333.22 K	426.27 ± 8.5	–
[2], 338.19 K	429.11 ± 8.6	–
[2], 343.18 K	433.37 ± 8.7	–
[2], 348.25 K	436.22 ± 8.7	–
[2], 353.18 K	439.06 ± 8.8	–
[2], 358.25 K	441.9 ± 8.8	–
[2], 363.18 K	443.32 ± 8.9	–
[2], 368.17 K	444.74 ± 8.9	–
[2], 373.21 K	447.58 ± 8.9	–
[2], 378.2 K	450.43 ± 9	–
[2], 383.17 K	454.69 ± 9.1	–
[2], 388.2 K	457.53 ± 9.2	–
[2], 393.17 K	460.37 ± 9.2	–
[2], 398.2 K	463.21 ± 9.3	–
[2], 403.2 K	468.9 ± 9.4	–
[2], 408.16 K	470.32 ± 9.4	–
[2], 413.19 K	471.74 ± 9.4	–
[2], 418.19 K	473.16 ± 9.5	–
[2], 423.22 K	474.58 ± 9.5	–
